According to patent publication US11613531B2, “Inhibitors of RHO associated coiled-coil containing protein kinase” (Kadmon Corporation, LLC, priority 2017, dated 2023):

Each compound was assayed on ppMlc (T18/S19) levels in A7R5 cells (assay: A7R5 in-cell ELISA (pMLC)). Conditions: A7R5 cells, 1 μM compound.
Assay type: cell-based, Rat
Protocol: Determination of Compounds ROCK Inhibitory Activity in A7R5Cells.
Rat aortic smooth muscle cell line, A7R5, cells were seeded with density of 5,000 cells/well in a 96-well plates for 24 hours and subsequently treated for 90 min with testing compounds. Cells were then fixed and processed according to the In-Cell ELISA Colorimetric Detection Kit manual (Thermo Scientific).
An A7R5 in-cell Elisa assay was performed. A7R5 cells were treated with 9 points 2 fold serial dilution of compounds and ppMlc (T18/S19) levels were determined to calculate cellular IC50 values of the compounds. Compounds of the invention gave in cell IC50s under 100 nM.
In vitro activities for the compounds were measured with Z′-lyte kinase kit (ThermoFisher Scientific). The percent inhibition rate was calculated by normalizing the kinase activity value obtained with 1 μM compound treatment against DMSO control value and then applied to the formula, [1-(compound/DMSO)]×100%. IC50s were calculated using the nonlinear regression curve fit function of the GraphPad Prism software with kinase activities data measured with 9 points 2-fold serial dilution of compounds treatment. In cell pMLC IC50s were calculated with data obtained from A7R5 cell experiments. A7R5 cells were treated with 9 points 2-fold serial dilution of compounds and ppMlc (T18/S19) levels were determined to calculate cellular IC50 values of the compounds using the nonlinear regression curve fit function of the GraphPad Prism software. NIH3T3 cells stably expressing ACTA2-promoter-driven-luciferase were applied to measure ROCK compounds functional IC50s in cells. Cells were plated in 96 well plates to confluence and treated with 9 points serial dilution of compounds in combination with TGFβ1 for 24 hr. Luciferase activities were measured and compound's IC50s were calculated using the nonlinear regression curve fit function of the GraphPad Prism software.

For `c1cc(Nc2ccc3[nH]ncc3c2)nc(N2CCCC(C3CCCNC3)C2)n1` (stereo not shown) [Example 86, N-(2-([3,3′-bipiperidin]-1-yl)pyrimidin-4-yl)-1H-indazol-5-amine], which “pMLC % inh A7R5 @ [conc]” value is on record?
The value was 377.49%.

Same assay, conditions: Rattus norvegicus, A7R5, A7R5 cells, 1 μM compound; read-out: pMLC % inh A7R5 @ [conc]

`O=C1CN(c2nccc(Nc3ccc4[nH]ncc4c3)n2)CCN1` [Example 17, 4-(4-((1H-indazol-5-yl)amino)pyrimidin-2-yl)piperazin-2-one] was tested. Which inhibition at 1 µM did it give?
The inhibition at 1 µM was 11.2%.

With `c1cc(Nc2ccc3[nH]ncc3c2)nc(N2CCC3(CC2)CNC3)n1` [Example 70, N-(2-(2,7-diazaspiro[3.5]nonan-7-yl)pyrimidin-4-yl)-1H-indazol-5-amine] as the compound, how does the inhibition at 1 µM read?
Its inhibition at 1 µM is -9.7%.

With `c1cc(Nc2ccc3[nH]ncc3c2)nc(N2CCC3(CNC3)C2)n1` [Example 71, N-(2-(2,6-diazaspiro[3.4]octan-6-yl)pyrimidin-4-yl)-1H-indazol-5-amine] as the compound, how does the inhibition at 1 µM read?
Its inhibition at 1 µM is -12.8%.

Which inhibition at 1 µM does the source give for `c1cc(Nc2ccc3[nH]ncc3c2)nc(N2CCC3(CC2)CNCCO3)n1` [Example 72, N-(2-(1-oxa-4,9-diazaspiro[5.5]undecan-9-yl)pyrimidin-4-yl)-1H-indazol-5-amine] here?
The inhibition at 1 µM was -6.7%.

`c1cc(Nc2ccc3[nH]ncc3c2)nc(N2CCC3(CCCNC3)C2)n1` (stereo not shown) [Example 73, N-(2-(2,7-diazaspiro[4.5]decan-2-yl)pyrimidin-4-yl)-1H-indazol-5-amine] was tested. Which inhibition at 1 µM did it give?
Its inhibition at 1 µM is -4.8%.

How did the inhibition at 1 µM turn out when `c1cc(Nc2ccc3[nH]ncc3c2)nc(N2CCCC3(CCNC3)C2)n1` (stereo not shown) [Example 74, N-(2-(2,7-diazaspiro[4.5]decan-7-yl)pyrimidin-4-yl)-1H-indazol-5-amine] was run?
Its inhibition at 1 µM is 2.7%.

`c1cc(Nc2ccc3[nH]ncc3c2)nc(N2CC3(CCNC3)C2)n1` [Example 75, N-(2-(2,6-diazaspiro[3.4]octan-2-yl)pyrimidin-4-yl)-1H-indazol-5-amine] was tested. Which inhibition at 1 µM did it give?
Its inhibition at 1 µM is -8.7%.

Which inhibition at 1 µM does the source give for `c1cc(Nc2ccc3[nH]ncc3c2)nc(N2CC3(CCNCC3)C2)n1` [Example 76, N-(2-(2,7-diazaspiro[3.5]nonan-2-yl)pyrimidin-4-yl)-1H-indazol-5-amine] here?
The inhibition at 1 µM was 0%.

For `c1cc(Nc2ccc3[nH]ncc3c2)nc(N2CC3(CNC3)C2)n1` [Example 77, N-(2-(2,6-diazaspiro[3.3]heptan-2-yl)pyrimidin-4-yl)-1H-indazol-5-amine], which inhibition at 1 µM is on record?
Its inhibition at 1 µM is -2.9%.

Which inhibition at 1 µM does the source give for `c1cc(Nc2ccc3[nH]ncc3c2)nc(N2CC3CNCC(C3)C2)n1` [Example 79, N-(2-(3,7-diazabicyclo[3.3.1]nonan-3-yl)pyrimidin-4-yl)-1H-indazol-5-amine] here?
The inhibition at 1 µM was 9.8%.

How did the inhibition at 1 µM turn out when `c1cc(Nc2ccc3[nH]ncc3c2)nc(N2CCC3NCCC3C2)n1` (stereo not shown) [Example 80, N-(2-(octahydro-5H-pyrrolo[3,2-c]pyridin-5-yl)pyrimidin-4-yl)-1H-indazol-5-amine] was run?
Its inhibition at 1 µM is 11.9%.

With `c1cc(Nc2ccc3[nH]ncc3c2)nc(N2C[C@@H]3CN[C@@H]3C2)n1` [Example 81, N-(2-((1S,5S)-3,6-diazabicyclo[3.2.0]heptan-3-yl)pyrimidin-4-yl)-1H-indazol-5-amine] as the compound, how does the inhibition at 1 µM read?
The inhibition at 1 µM was 13.2%.

Which inhibition at 1 µM does the source give for `c1cc(Nc2ccc3[nH]ncc3c2)nc(N2CCC(C3CNC3)C2)n1` (stereo not shown) [Example 83, N-(2-(3-(azetidin-3-yl)pyrrolidin-1-yl)pyrimidin-4-yl)-1H-indazol-5-amine] here?
Its inhibition at 1 µM is 2.1%.

For `Cc1cc(Nc2ccc3[nH]ncc3c2)nc(N2CCC3(CC2)CNC3)n1` [Example 121, N-(6-methyl-2-(2,7-diazaspiro[3.5]nonan-7-yl)pyrimidin-4-yl)-1H-indazol-5-amine], which inhibition at 1 µM is on record?
Its inhibition at 1 µM is -7.3%.

`Cc1cc(Nc2ccc3[nH]ncc3c2)nc(N2CCC3(CNC3)C2)n1` [Example 122, N-(6-methyl-2-(2,6-diazaspiro[3.4]octan-6-yl)pyrimidin-4-yl)-1H-indazol-5-amine] was tested. Which inhibition at 1 µM did it give?
The inhibition at 1 µM was -6.8%.

For `Cc1cc(Nc2ccc3[nH]ncc3c2)nc(N2CCC3(CC2)CNCCO3)n1` [Example 123, N-(6-methyl-2-(1-oxa-4,9-diazaspiro[5.5]undecan-9-yl)pyrimidin-4-yl)-1H-indazol-5-amine], which inhibition at 1 µM is on record?
The inhibition at 1 µM was -0.8%.

Which inhibition at 1 µM does the source give for `Cc1cc(Nc2ccc3[nH]ncc3c2)nc(N2CCC3(CCCNC3)C2)n1` (stereo not shown) [Example 124, N-(6-methyl-2-(2,7-diazaspiro[4.5]decan-2-yl)pyrimidin-4-yl)-1H-indazol-5-amine] here?
Its inhibition at 1 µM is -7.6%.

With `Cc1cc(Nc2ccc3[nH]ncc3c2)nc(N2CCCC3(CCNC3)C2)n1` (stereo not shown) [Example 125, N-(6-methyl-2-(2,7-diazaspiro[4.5]decan-7-yl)pyrimidin-4-yl)-1H-indazol-5-amine] as the compound, how does the inhibition at 1 µM read?
Its inhibition at 1 µM is 0.7%.

Same assay, conditions: Rattus norvegicus, A7R5, A7R5 cells, 10 μM compound; read-out: pMLC % inh A7R5 @ [conc]

With `c1ccc(CC2CN(c3nc4c(c(Nc5ccc6[nH]ncc6c5)n3)COC4)CCCN2)cc1` (stereo not shown) [Example 2, 2-(3-benzyl-1,4-diazepan-1-yl)-N-(1H-indazol-5-yl)-5,7-dihydrofuro[3,4-d]pyrimidin-4-amine] as the compound, how does the inhibition at 10 µM read?
The inhibition at 10 µM was 72.4%.

With `Cc1cnc(N2CCCNCC2)nc1Nc1ccc2[nH]ncc2c1` [Example 3, N-(2-(1,4-diazepan-1-yl)-5-methylpyrimidin-4-yl)-1H-indazol-5-amine] as the compound, how does the inhibition at 10 µM read?
Its inhibition at 10 µM is 54.4%.

Which inhibition at 10 µM does the source give for `Cc1nc(N2CCCNC(C(C)C)C2)nc(Nc2ccc3[nH]ncc3c2)c1C` (stereo not shown) [Example 16, N-(2-(3-isopropyl-1,4-diazepan-1-yl)-5,6-dimethylpyrimidin-4-yl)-1H-indazol-5-amine] here?
Its inhibition at 10 µM is 32.1%.

With `Cc1nc(N2CCCNC(c3ccccc3)C2)nc(Nc2ccc3[nH]ncc3c2)c1C` (stereo not shown) [Example 20, N-(5,6-dimethyl-2-(3-phenyl-1,4-diazepan-1-yl)pyrimidin-4-yl)-1H-indazol-5-amine] as the compound, how does the inhibition at 10 µM read?
Its inhibition at 10 µM is 37.6%.

For `Cc1nc(N2CCNC(c3ccccc3)CC2)nc(Nc2ccc3[nH]ncc3c2)c1C` (stereo not shown) [Example 21, N-(5,6-dimethyl-2-(5-phenyl-1,4-diazepan-1-yl)pyrimidin-4-yl)-1H-indazol-5-amine], which inhibition at 10 µM is on record?
Its inhibition at 10 µM is 21.1%.

`Cc1nc(N2CC(C)NC(C)C2)nc(Nc2ccc3[nH]ncc3c2)c1C` (stereo not shown) [Example 24, N-(2-(3,5-dimethylpiperazin-1-yl)-5,6-dimethylpyrimidin-4-yl)-1H-indazol-5-amine] was tested. Which inhibition at 10 µM did it give?
Its inhibition at 10 µM is 22.6%.

For `c1cncc(-c2ccc(Nc3ccnc(N4CCNCC4)n3)cc2)c1` [Example 40, 2-(piperazin-1-yl)-N-(4-(pyridin-3-yl)phenyl)pyrimidin-4-amine], which inhibition at 10 µM is on record?
The inhibition at 10 µM was 13.4%.

How did the inhibition at 10 µM turn out when `c1cc(Nc2ccc(-c3nnn[nH]3)cc2)nc(N2CCNCC2)n1` [Example 42, N-(4-(1H-tetrazol-5-yl)phenyl)-2-(piperazin-1-yl)pyrimidin-4-amine] was run?
The inhibition at 10 µM was 9.1%.

For `COc1cnc(N2CCCNC(c3ccccc3)C2)nc1Nc1ccc2[nH]ncc2c1` (stereo not shown) [Example 48, N-(5-methoxy-2-(3-phenyl-1,4-diazepan-1-yl)pyrimidin-4-yl)-1H-indazol-5-amine], which inhibition at 10 µM is on record?
Its inhibition at 10 µM is 51.1%.

`COc1cnc(N2CCNC(c3ccccc3)CC2)nc1Nc1ccc2[nH]ncc2c1` (stereo not shown) [Example 50, N-(5-methoxy-2-(5-phenyl-1,4-diazepan-1-yl)pyrimidin-4-yl)-1H-indazol-5-amine] was tested. Which inhibition at 10 µM did it give?
The inhibition at 10 µM was 35.5%.

For `COc1cnc(N2CC(C)NC(C)C2)nc1Nc1ccc2[nH]ncc2c1` (stereo not shown) [Example 52, N-(2-(3,5-dimethylpiperazin-1-yl)-5-methoxypyrimidin-4-yl)-1H-indazol-5-amine], which inhibition at 10 µM is on record?
The inhibition at 10 µM was 29.5%.

Which inhibition at 10 µM does the source give for `Cc1cnc(N2CCCNC(C(C)C)C2)nc1Nc1ccc2[nH]ncc2c1` (stereo not shown) [Example 92, N-(2-(3-isopropyl-1,4-diazepan-1-yl)-5-methylpyrimidin-4-yl)-1H-indazol-5-amine] here?
The inhibition at 10 µM was 19.6%.

For `Cc1cnc(N2CCNC(C(C)C)CC2)nc1Nc1ccc2[nH]ncc2c1` (stereo not shown) [Example 93, N-(2-(5-isopropyl-1,4-diazepan-1-yl)-5-methylpyrimidin-4-yl)-1H-indazol-5-amine], which inhibition at 10 µM is on record?
Its inhibition at 10 µM is 21.1%.

For `Cc1cnc(N2CCNC(c3ccccc3)CC2)nc1Nc1ccc2[nH]ncc2c1` (stereo not shown) [Example 94, N-(5-methyl-2-(5-phenyl-1,4-diazepan-1-yl)pyrimidin-4-yl)-1H-indazol-5-amine], which inhibition at 10 µM is on record?
Its inhibition at 10 µM is 19.2%.

With `CCC1CN(c2ncc(C)c(Nc3ccc4[nH]ncc4c3)n2)CCN1` (stereo not shown) [Example 99, N-(2-(3-ethylpiperazin-1-yl)-5-methylpyrimidin-4-yl)-1H-indazol-5-amine] as the compound, how does the inhibition at 10 µM read?
Its inhibition at 10 µM is 29.6%.

Which inhibition at 10 µM does the source give for `Cc1cnc(N2CCCNC(c3ccccc3)C2)nc1Nc1ccc2[nH]ncc2c1` (stereo not shown) [Example 103, N-(5-methyl-2-(3-phenyl-1,4-diazepan-1-yl)pyrimidin-4-yl)-1H-indazol-5-amine] here?
The inhibition at 10 µM was 38.3%.

How did the inhibition at 10 µM turn out when `Cc1cc(Nc2ccc3[nH]ncc3c2)nc(N2CCNC(c3ccccc3)CC2)n1` (stereo not shown) [Example 108, N-(6-methyl-2-(5-phenyl-1,4-diazepan-1-yl)pyrimidin-4-yl)-1H-indazol-5-amine] was run?
Its inhibition at 10 µM is 47.3%.

`Cc1cc(Nc2ccc3[nH]ncc3c2)nc(N2CCCNC(c3ccccc3)C2)n1` (stereo not shown) [Example 112, N-(6-methyl-2-(3-phenyl-1,4-diazepan-1-yl)pyrimidin-4-yl)-1H-indazol-5-amine] was tested. Which inhibition at 10 µM did it give?
Its inhibition at 10 µM is 56.9%.

Same assay, conditions: Rattus norvegicus, A7R5, A7R5 cells, ppMlc (T18/S19)

`c1ccc(CC2CN(c3nc4c(c(Nc5ccc6[nH]ncc6c5)n3)COC4)CCCN2)cc1` (stereo not shown) [Example 2, 2-(3-benzyl-1,4-diazepan-1-yl)-N-(1H-indazol-5-yl)-5,7-dihydrofuro[3,4-d]pyrimidin-4-amine] was tested. Which IC50 did it give?
The IC50 was 2500 nM.

Which IC50 does the source give for `COc1cnc(N2CCCNC(c3ccccc3)C2)nc1Nc1ccc2[nH]ncc2c1` (stereo not shown) [Example 48, N-(5-methoxy-2-(3-phenyl-1,4-diazepan-1-yl)pyrimidin-4-yl)-1H-indazol-5-amine] here?
Its IC50 is 2580 nM.

`Cc1cc(Nc2ccc3[nH]ncc3c2)nc(N2CCCNC(c3ccccc3)C2)n1` (stereo not shown) [Example 112, N-(6-methyl-2-(3-phenyl-1,4-diazepan-1-yl)pyrimidin-4-yl)-1H-indazol-5-amine] was tested. Which IC50 did it give?
Its IC50 is 1290 nM.
